Test results: patent publication US20110151529A1, “METHODS AND PROCESSES FOR PRODUCING ORGANIC ACIDS” (THE OHIO STATE UNIVERSITY, priority 2008, published 2011)

Test system: C. tyrobutyricum adapted culture from the FBB
Type: cell-based, Clostridium tyrobutyricum
Conditions: butyrate concentration increased from nil to 30 g/L

## CCCC(=O)O [butyric acid]
  growth ability retained: more than 50%
